Reference: patent US10144742B2 (Millennium Pharmaceuticals, Inc., priority 2014, dated 2018)
Like-named read-outs stand apart in the source and are kept apart here.

What was measured:
hNAMPT protein = hNAMPT protein (Homo sapiens (Human), UniProt P43490); experiment: NAMPT enzyme assay (TR-FRET/HTRF, BodiPY ligand, anti 6His-Tb); assay type: binding; conditions: for IC50: read-out: IC50; for inhibition at 1 µM: read-out: Percent Inhibition
How it was run: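 Compound or DMSO was incubated for 1 h at room temperature, protected from light, with BodiPY ligand and hNAMPT labelled by terbium anti-6His antibody. The 520 nm to 486 nm emission ratio after 320 nm excitation gave inhibition versus vehicle, from which concentration-response curves yielded IC50.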

PC3 cells = experiment: PC3 growth inhibition (Cell-titer glo, 72 hours); assay type: cell-based; conditions: Homo sapiens, PC-3; compound concentration 1.667 μM; PC3 cells, 72 hours, Cell-titer glo; read-out: Percent Inhibition (PC3 growth inhibition)
How it was run: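 Compounds in AIM serum-free medium were applied for 72 h at 37 °C, 5% CO2 to PC3 cells plated overnight from RPMI1640 culture. Luminescence after 10 min CellTiter-Glo, normalised to DMSO, gave % viability at 1 μM or 1.667 μM, or GI50/LD50.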

Sequence of hNAMPT protein (P43490 whole entry): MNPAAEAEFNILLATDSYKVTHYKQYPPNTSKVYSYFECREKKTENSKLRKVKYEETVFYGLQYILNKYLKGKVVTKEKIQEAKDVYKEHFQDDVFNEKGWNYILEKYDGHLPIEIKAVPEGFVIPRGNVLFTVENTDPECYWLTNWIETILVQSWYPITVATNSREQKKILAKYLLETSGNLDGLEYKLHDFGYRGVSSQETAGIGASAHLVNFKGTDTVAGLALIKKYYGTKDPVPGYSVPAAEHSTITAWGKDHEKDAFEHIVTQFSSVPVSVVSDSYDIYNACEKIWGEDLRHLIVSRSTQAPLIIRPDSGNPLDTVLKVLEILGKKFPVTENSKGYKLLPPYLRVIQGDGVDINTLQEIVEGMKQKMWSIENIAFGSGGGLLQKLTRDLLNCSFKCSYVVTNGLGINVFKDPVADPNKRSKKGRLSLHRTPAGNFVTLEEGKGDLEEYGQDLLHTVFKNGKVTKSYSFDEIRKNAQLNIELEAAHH

Row | SMILES | IC50 (hNAMPT protein; NAMPT IC50 range class) | inhibition at 1 µM (hNAMPT protein; compound concentration 1 μM) | inhibition at 1.667 µM (PC3 cells) | inhibition at 1 µM (hNAMPT protein; NAMPT inhibition at compound concentration 1 μM) | IC50 (hNAMPT protein; NAMPT inhibition, IC50 range class)
1 | CC(=O)c1ccc(-c2nc3cc(C(=O)NCCCc4ncc[nH]4)ccc3nc2-c2ccc(F)cc2)s1 [Compound I-370, 3-(5-acetyl-2-thienyl)-2-(4-fluorophenyl)-N-[3-(1H-imidazol-2-yl)propyl]quinoxaline-6-carboxamide] | 500 to 1000 nM | 64% | 3% | – | –
2 | CCCOc1nc2ccc(C(=O)NCCCc3ncc[nH]3)cc2nc1-c1ccc(F)cc1 [Compound I-371, 3-(4-fluorophenyl)-N-[3-(1H-imidazol-2-yl)propyl]-2-propoxyquinoxaline-6-carboxamide] | < 100 nM | 97% | 3% | – | –
3 | O=C(NCCCc1ncc[nH]1)c1ccc2nc(O[C@@H]3CCOC3)c(-c3ccc(F)cc3)nc2c1 [Compound I-372, 3-(4-fluorophenyl)-N-[3-(1H-imidazol-2-yl)propyl]-2-[(3R)-tetrahydrofuran-3-yloxy]quinoxaline-6-carboxamide] | < 100 nM | > 99% | 2% | – | –
4 | O=C(NCCCc1ncc[nH]1)c1ccc2nc(-c3ccc(F)cc3)c(-c3ccc(F)cc3F)nc2c1 [Compound I-373, 3-(2,4-difluorophenyl)-2-(4-fluorophenyl)-N-[3-(1H-imidazol-2-yl)propyl]quinoxaline-6-carboxamide] | 100 to 500 nM | 84% | 2% | – | –
5 | O=C(NCCCc1ncc[nH]1)c1ccc2nc(-n3ccnn3)c(-c3ccc(F)cc3)nc2c1 [Compound I-374, 3-(4-fluorophenyl)-N-[3-(1H-imidazol-2-yl)propyl]-2-(1H-1,2,3-triazol-1-yl)quinoxaline-6-carboxamide] | 100 to 500 nM | 75% | 3% | – | –
6 | CC(C)Sc1nc2ccc(C(=O)NCCCc3ncc[nH]3)cc2nc1-c1ccc(F)cc1 [Compound I-375, 3-(4-Fluorophenyl)-N-[3-(1H-imidazol-2-yl)propyl]-2-(isopropylsulfanyl)quinoxaline-6-carboxamide] | 100 to 500 nM | 80% | 2% | – | –
7 | O=C(NCCc1ncc[nH]1)c1ccc2nc(-c3ccc(F)cc3)c(-c3cccc(Cl)c3)nc2c1 [Compound I-376, 3-(3-chlorophenyl)-2-(4-fluorophenyl)-N-[2-(1H-imidazol-2-yl)ethyl]quinoxaline-6-carboxamide] | 500 to 1000 nM | 30% | 52% | – | –
8 | N#Cc1cc(-c2nc3cc(C(=O)NCCCc4ncc[nH]4)ccc3nc2-c2ccc(F)cc2)ccc1Cl [Compound I-377, 3-(4-chloro-3-cyanophenyl)-2-(4-fluorophenyl)-N-[3-(1H-imidazol-2-yl)propyl]quinoxaline-6-carboxamide] | 100 to 500 nM | 85% | 2% | – | –
9 | O=C(NCCCc1ncc[nH]1)c1ccc2nc(OCC3CC4(COC4)C3)c(-c3ccc(F)cc3)nc2c1 [Compound I-378, 3-(4-fluorophenyl)-N-[3-(1H-imidazol-2-yl)propyl]-2-(2-oxaspiro[3.3]hept-6-ylmethoxy)quinoxaline-6-carboxamide] | < 100 nM | > 99% | 2% | – | –
10 | O=C(NCCCc1ncc[nH]1)c1ccc2nc(OCC3CCOC3)c(-c3ccc(F)cc3)nc2c1 (stereo not drawn) [Compound I-379, 3-(4-fluorophenyl)-N-[3-(1H-imidazol-2-yl)propyl]-2-(tetrahydrofuran-3-ylmethoxy)quinoxaline-6-carboxamide] | < 100 nM | 100% | 2% | – | –
11 | CC(C)Oc1nc2ccc(C(=O)NCCCc3cn[nH]c3)cc2nc1-c1ccc(F)cc1 [Compound I-380, 3-(4-Fluorophenyl)-2-isopropoxy-N-[3-(1H-pyrazol-4-yl)propyl]quinoxaline-6-carboxamide] | 500 to 1000 nM | 55% | 2% | – | –
12 | O=C(NCCCc1ncc[nH]1)c1ccc2nc(-c3ccc(F)cc3)c(-c3cc(C(F)(F)F)ccc3Cl)nc2c1 [Compound I-381, 3-[2-chloro-5-(trifluoromethyl)phenyl]-2-(4-fluorophenyl)-N-[3-(1H-imidazol-2-yl)propyl]quinoxaline-6-carboxamide] | < 100 nM | 96% | 2% | – | –
13 | CCc1ccc(-c2nc3cc(C(=O)NCCCc4ncc[nH]4)ccc3nc2-c2ccc(F)cc2)cc1 [Compound I-382, 3-(4-ethylphenyl)-2-(4-fluorophenyl)-N-[3-(1H-imidazol-2-yl)propyl]quinoxaline-6-carboxamide] | 500 to 1000 nM | 55% | 3% | – | –
14 | C[C@@H]1CN(c2nc3ccc(C(=O)NCCCc4ncc[nH]4)cc3nc2-c2ccc(F)cc2)C[C@H](C)O1 [Compound I-383, 2-[cis-2,6-dimethylmorpholin-4-yl]-3-(4-fluorophenyl)-N-[3-(1H-imidazol-2-yl)propyl]quinoxaline-6-carboxamide] | < 100 nM | 99% | 2% | – | –
15 | CS(=O)(=O)c1cccc(-c2nc3cc(C(=O)NCCCc4ncc[nH]4)ccc3nc2-c2ccc(F)cc2)c1 [Compound I-384, 2-(4-fluorophenyl)-N-[3-(1H-imidazol-2-yl)propyl]-3-[3-(methylsulfonyl)phenyl]quinoxaline-6-carboxamide] | 100 to 500 nM | 84% | 2% | – | –
16 | CC(C)Oc1nc2ccc(C(=O)NCCCc3ncc[nH]3)cc2nc1-c1cccs1 [Compound I-385, N-[3-(1H-imidazol-2-yl)propyl]-2-isopropoxy-3-(2-thienyl)quinoxaline-6-carboxamide] | < 100 nM | > 99% | 2% | – | –
17 | Cn1ccc2cc(-c3nc4cc(C(=O)NCCCc5ncc[nH]5)ccc4nc3-c3ccc(F)cc3)ccc21 [Compound I-386, 2-(4-fluorophenyl)-N-[3-(1H-imidazol-2-yl)propyl]-3-(1-methyl-1H-indol-5-yl)quinoxaline-6-carboxamide] | 100 to 500 nM | 90% | 2% | – | –
18 | O=C(NCCCc1nnc[nH]1)c1ccc2nc(-c3ccc(F)cc3)c(-c3ccc(F)cc3)nc2c1 [Compound I-387, 2,3-bis(4-fluorophenyl)-N-[3-(4H-1,2,4-triazol-3-yl)propyl]quinoxaline-6-carboxamide] | 500 to 1000 nM | 61% | 5% | – | –
19 | N#Cc1cc(-c2nc3cc(C(=O)NCCCc4ncc[nH]4)ccc3nc2-c2ccc(F)cc2)ccc1F [Compound I-388, 3-(3-cyano-4-fluorophenyl)-2-(4-fluorophenyl)-N-[3-(1H-imidazol-2-yl)propyl]quinoxaline-6-carboxamide] | 100 to 500 nM | 81% | 3% | – | –
20 | O=C(NCCCc1ncc[nH]1)c1ccc2nc(-n3ccc4cnccc43)c(-c3ccc(F)cc3)nc2c1 [Compound I-389, 3-(4-fluorophenyl)-N-[3-(1H-imidazol-2-yl)propyl]-2-(1H-pyrrolo[3,2-c]pyridin-1-yl)quinoxaline-6-carboxamide] | < 100 nM | 93% | 2% | – | –
21 | O=C(NCCCc1ncc[nH]1)c1ccc2nc(OCCc3cnoc3)c(-c3ccc(F)cc3)nc2c1 [Compound I-390, 3-(4-fluorophenyl)-N-[3-(1H-imidazol-2-yl)propyl]-2-[2-(isoxazol-4-yl)ethoxy]quinoxaline-6-carboxamide] | < 100 nM | 99% | 2% | – | –
22 | COc1nccc(-c2nc3cc(C(=O)NCCCc4ncc[nH]4)ccc3nc2-c2ccc(F)cc2)c1F [Compound I-391, 3-(3-fluoro-2-methoxypyridin-4-yl)-2-(4-fluorophenyl)-N-[3-(1H-imidazol-2-yl)propyl]quinoxaline-6-carboxamide] | 100 to 500 nM | 83% | 3% | – | –
23 | COc1cc(-c2nc3cc(C(=O)NCCCc4ncc[nH]4)ccc3nc2OC(C)C)c(F)cn1 [Compound I-392, 3-(5-fluoro-2-methoxypyridin-4-yl)-N-[3-(1H-imidazol-2-yl)propyl]-2-isopropoxyquinoxaline-6-carboxamide] | 100 to 500 nM | 91% | 1% | – | –
24 | N#Cc1ccc(Cl)c(-c2nc3cc(C(=O)NCCCc4ncc[nH]4)ccc3nc2-c2ccc(F)cc2)c1 [Compound I-393, 3-(2-chloro-5-cyanophenyl)-2-(4-fluorophenyl)-N-[3-(1H-imidazol-2-yl)propyl]quinoxaline-6-carboxamide] | < 100 nM | 98% | 2% | – | –
25 | Cc1cncc(-c2nc3cc(C(=O)NCCCc4ncc[nH]4)ccc3nc2-c2ccc(F)cc2)c1 [Compound I-394, 2-(4-fluorophenyl)-N-[3-(1H-imidazol-2-yl)propyl]-3-(5-methylpyridin-3-yl)quinoxaline-6-carboxamide] | 100 to 500 nM | 74% | 3% | – | –
26 | Cc1cccc(-c2nc3cc(C(=O)NCCCc4ncc[nH]4)ccc3nc2-c2ccc(F)cc2)c1 [Compound I-395, 2-(4-fluorophenyl)-N-[3-(1H-imidazol-2-yl)propyl]-3-(3-methylphenyl)quinoxaline-6-carboxamide] | – | – | 2% | 83% | 100 to 500 nM
